This is an account of results in EP1280522B1, “COMBINATION OF CARBOXYALKYLETHERS WITH ANTIHYPERTENSIVES AND PHARMACEUTICAL USE” (WARNER-LAMBERT COMPANY, priority 2000, dated 2001).

Experiment [1] concerns SHR. Nature of the experiment: Antihypertensive effect on MABP in SHR by radiotelemetry: CI-1027, amlodipine and their combination (Example 2). As to conditions: for MABP: peak MABP 4-6 hours postdose. It counts as in vivo, rats. Here is the method:
The general procedure of Example 1 was followed to evaluate the antihypertensive efficacy of the carboxyalkylether CI-1027 alone and in combination with the calcium channel blocker amlodipine.
Male SHR (15-20 weeks old, Charles River Laboratories) were prepared with indwelling aortic catheters and radiotransmitters for continuous measurement of arterial blood pressure and heart rate. Animals were allowed food and water ad libitum. Before dosing all rats were given a minimum of 7 days for recovery from surgery.
The experiment was carried out over 22 days in 3 groups of SHR. Group I served as a control and received 2 mL/kg/day of vehicle (same as in Example 1) for 22 consecutive days. Group II, used to determined the antihypertensive response to amlodipine monotherapy, was given vehicle for the first 13 consecutive days. Then on Day 14, amlodipine was added at a dose of 0.3 mg/kg/day for 3 consecutive days. The dose was then increased to 1 mg/kg/day for the next 3 days, and on the final 3 days, 3 mg/kg/day was given. To determine the response to CI-1027 monotherapy, Group III received a 13-day treatment with CI-1027 monotherapy at a dose of 30 mg/kg/day. The antihypertensive response to the combination therapy was determined by the addition of amlodipine to ongoing CI-1027 treatment on Day 14.
Drugs were suspended or dissolved in vehicle that contains 96% water, 3% carboxymethocellulose, and 1% tween 88. Compounds were given at 9 AM daily by oral gavage in a volume of 2 mL/kg. The combination of CI-1027 and amlodipine was given as a single gavage in a volume of 2 mL/kg.

The test system of experiment [2] is spontaneously hypertensive rats (SHR). Put plainly: Antihypertensive effect on MABP in SHR by radiotelemetry: CI-1027, quinapril and their combination (Example 1). Format: in vivo. As to conditions: for MABP: peak MABP 2-4 hours postdose. As to the method: The antihypertensive effects of the carboxyalkylether compound of Formula III (CI-1027), alone and in combination with an antihypertensive agent such as quinapril (CI-906), were evaluated in rats according to the following protocol.
Male spontaneously hypertensive rats (SHR, 15-20 weeks old, Charles River Laboratories, Wilmington, Massachusetts) were prepared with indwelling aortic catheters and radiotransmitters (Data Sciences International, Saint Paul, Minnesota). The radiotransmitters provided continuous measurement of aortic blood pressure waveform. From the aortic blood pressure waveform a Ponemah (Gould Instruments Inc, Valley View, Ohio) computer provided mean arterial blood pressure (MABP) and heart rate values continuously as one-minute averages. One-minute data was then summarized at 15-minute intervals using Excel (Microsoft Corporation, Redmond, Washington) spreadsheets. Animals were allowed food and water ad libitum. To allow for recovery following surgery, rats were not dosed for a minimum of 7 days. Day 0 predose blood pressures were obtained by averaging eight 15-minute MABP measurements made 2 hours before dosing. To obtain the peak response to treatment (Days 0, 12, 16, 19, and 22), the 15-minute MABP measurements in the interval between 2 and 4 hours post-dose were averaged.
Test compounds were given in a vehicle that contained 96% water, 3% carbomethocellulose (Sigma Chemical, Saint Louis, Missouri) and 1% tween 88 (polyoxyethylenesorbitan monooleate, Sigma Chemical). CI-1027 and quinapril monotherapy were administered at 8:30 AM daily by oral gavage in a volume of 2 mL/kg. The combination of CI-1027 and quinapril was given as a single gavage in a volume of 2 mL/kg.
The experiment was carried out over 22 days in 4 groups of animals. Group I served as a control and received 2 mL/kglday of vehicle for 22 consecutive days. Group II, used to determine the antihypertensive response to quinapril monotherapy, was given vehicle for the first 12 to 13 consecutive days. Then on Day 13 to 14 quinapril was added at a dose of 0.3 mg/kg/day for 3 to 4 consecutive days; the dose was then increased to 1 mg/kg/day for the next 3 days, and on the final 3 days, 3 mg/kg/day was administered. To determine the response to CI-1027 monotherapy, Groups III and IV received 12-day treatment with CI-1027 monotherapy at doses of 30 and 100 mg/kg/day, respectively. To determine the antihypertensive response to the combination therapy quinapril, was added to the ongoing CI-1027 treatment (Day 13-14) using the rising dose protocol described for Group II (quinapril monotherapy).

Values joined by “and” are separate entries in the source; they are usually repeats but may differ in a detail not shown here. Identical values can stand only once.

On to `CCOC(=O)C1=C(COCCN)NC(C)=C(C(=O)OC)C1c1ccccc1Cl` (stereo not drawn) [Amlodipine, amlodipine], for which the MABP entry in experiment [1] (Group 2, Day 16, Amlodipine 0.3 mg/kg/day oral gavage, mean ± standard error) is on record as “Amlodipine (0.3 mg/kg/day) 140 ± 6 mm Hg”; in experiment [1] (Group 2, Day 19, Amlodipine 1 mg/kg/day oral gavage) it was “Amlodipine (1 mg/kg/day) 131 ± 5 mm Hg”. For the same molecule, the minimal effective dose in experiment [1] (Rattus norvegicus, po, amlodipine monotherapy (Group II), rising dose protocol, read-out: threshold antihypertensive dose) worked out at 1 mg/kg/day.
Take `CCOC(=O)[C@H](CCc1ccccc1)N[C@@H](C)C(=O)N1Cc2ccccc2C[C@H]1C(=O)O` [Quinapril, quinapril]: the MABP is 122 ± 5 mm Hg in experiment [2] (Group 2, Day 16, Quinapril 0.3 mg/kg/day oral gavage, mean ± standard error); 121 ± 4 mm Hg in experiment [2] (Group 2, Day 19, Quinapril 1 mg/kg/day oral gavage, mean ± standard error); 117 mm Hg and 117 ± 4 mm Hg in experiment [2] (Group 2, Day 22, Quinapril 3 mg/kg/day oral gavage, mean ± standard error). Also, the “antihypertensive response at 3 mg/kg/day greater than noted at 0.3 mg/kg/day” value in experiment [2] (Quinapril monotherapy, rising dose protocol, difference between 3 and 0.3 mg/kg/day) is given as 5 mm Hg.
Turning to `CC(C)(CCCCOCCCCC(C)(C)C(=O)O)C(=O)O` [CI-1027], the antihypertensive activity result in experiment [2] (CI-1027 monotherapy, 12 days, 30 and 100 mg/kg/day) is reported as “modest”. Besides, the MABP in experiment [2] (Group 3, Day 0, CI-1027 30 mg/kg/day oral gavage, predose 149 ± 3) is 145 ± 4 mm Hg; in experiment [2] (Group 3, Day 12, CI-1027 30 mg/kg/day oral gavage, 30 mg/kg/day) it was 131 mm Hg and 131 ± 3 mm Hg; in experiment [2] (Group 4, Day 0, CI-1027 100 mg/kg/day oral gavage, predose 141 ± 4) it was 141 ± 4 mm Hg; in experiment [1] (Group 3, Day 0, CI-1027 30 mg/kg/day oral gavage, predose 131 ± 3) it was “CI-1027 (30 mg/kg/day) 129 ± 4 mm Hg”.
